# Data reported in patent EP1996603B1, “LIPID A ANTAGONISTS WITH ANTI-SEPTIC SHOCK, ANTI-INFLAMMATORY, ANTI-ISCHEMIA AND ANALGESIC ACTIVITY” (Università Degli Studi Di Milano - Bicocca, priority 2006, dated 2007).
# “Also recorded” adds a separate entry of the source.
# Columns and labels:
# neuropathic mice = assay: Neuropathic pain after sciatic nerve ligation (plantar test, Von Frey test); format: in vivo, mice C57BL/6J; conditions: i.p. 5 mg/kg once a day for one week starting the day after surgery
# Method: Male mice C57BL/6J were anesthetized with sodium pentobarbital (65 mg/kg, i.p.) and submitted to surgery to induce neuropathic pain. […] Sham animals (sciatic exposure without ligation) were used as controls. The animal pain response was monitored before surgery, on day 7 (24 h after the last administration). Compound (Id) was administered i.p. at 5 mg/kg once a day starting the day after the surgery. Heat hypersensitivity was tested according to the Hargreaves' procedure using the plantar test (Ugo Basile, Varese, Italy). Mechanical allodynia was measured using the Von Frey test.
# [1] = system: ischemia-induced EEG flattening; assay: Cerebral ischemia by bilateral carotid occlusion, EEG spectral power; format: in vivo, Mongolian gerbils (Meriones unguiculatus); conditions: 10 mg/kg i.p. 30 min before bilateral carotid occlusion; starting from 1 hour after recirculation
# Method: After implanting EEG electrodes, the gerbils were divided into different groups on the basis of the assigned treatment. Their electroencephalogram (EEG) was recorded for 1 h a day, for three days, to determine the basal total and relative spectral power. The signals were recorded and processed for fast Fourier transform spectral analysis by means of PC software (PowerLab, AD Instruments, Pty, Ltd, Australia). EEG recordings were also made for seven days after ischemia. After basal EEG recordings, each gerbil was again lightly anaesthetised and 10-min. ischemia was induced by bilateral common carotid arteries occlusion. The ischemia was verified qualitatively on paper by the complete flattening of the EEG. A group of animals (sham-operated) underwent the same surgical procedure except that the carotid arteries were not clamped. Compound Id was i.p. administered to the animals at the dose of 10 mg/kg 30 minutes before ischemia induction.
# human TLR-4A = target: T1, human TLR-4A (Homo sapiens, UniProt O00206+Q9Y6Y9); assay: NF-kB activation in HEK-293 cells transfected with TLR-4, stimulated with lipid A; format: cell-based; conditions: TLR-4-transfected HEK 293; lipid A (0.5 µM) after pre-exposure to compound; measured 2 h later
# T1 construct: host or cells: HEK-293 (HEK-293-hTLR-4A)
# T1 sequence (O00206 24-839): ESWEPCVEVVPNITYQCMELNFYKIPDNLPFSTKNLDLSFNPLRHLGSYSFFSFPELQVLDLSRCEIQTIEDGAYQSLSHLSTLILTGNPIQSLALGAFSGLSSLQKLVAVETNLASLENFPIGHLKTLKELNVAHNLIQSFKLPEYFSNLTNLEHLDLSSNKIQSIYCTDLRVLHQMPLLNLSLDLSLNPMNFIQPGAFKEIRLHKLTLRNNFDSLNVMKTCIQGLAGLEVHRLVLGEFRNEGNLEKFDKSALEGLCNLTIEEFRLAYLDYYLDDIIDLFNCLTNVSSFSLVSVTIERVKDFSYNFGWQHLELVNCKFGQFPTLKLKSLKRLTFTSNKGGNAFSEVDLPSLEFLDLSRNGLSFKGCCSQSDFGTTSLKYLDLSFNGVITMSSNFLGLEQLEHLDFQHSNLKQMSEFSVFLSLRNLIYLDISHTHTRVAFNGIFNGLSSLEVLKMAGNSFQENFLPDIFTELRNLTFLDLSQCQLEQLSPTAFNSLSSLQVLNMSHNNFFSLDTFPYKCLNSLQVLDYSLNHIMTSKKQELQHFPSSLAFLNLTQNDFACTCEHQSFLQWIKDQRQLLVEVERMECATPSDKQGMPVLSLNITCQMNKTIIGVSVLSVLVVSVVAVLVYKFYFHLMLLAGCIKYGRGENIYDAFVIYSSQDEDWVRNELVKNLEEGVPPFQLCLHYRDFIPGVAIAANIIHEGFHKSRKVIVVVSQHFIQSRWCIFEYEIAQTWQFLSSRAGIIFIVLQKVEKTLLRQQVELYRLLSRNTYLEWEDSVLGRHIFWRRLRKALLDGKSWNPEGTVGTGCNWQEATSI
# T1 sequence (Q9Y6Y9 17-160 limits assumed): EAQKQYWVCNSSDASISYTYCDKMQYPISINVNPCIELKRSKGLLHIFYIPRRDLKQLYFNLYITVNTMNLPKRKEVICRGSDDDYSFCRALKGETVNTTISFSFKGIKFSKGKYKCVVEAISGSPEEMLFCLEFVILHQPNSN
# Method: (§1) • Figure 1. Antagonistic activity of compounds Ia, Ic and Id on lipid A-stimulated cytokine production in BMDC, BMØ and D1 cells. TNFα production was measured in the supernatants 24 h later. From the right: lipid A (0.5µM), cells treated with lipid A alone; DMSO: cells incubated in the presence of complete medium plus DMSO; inhibitor 50 µM, cells treated only with monosaccharides Ia, Ic and Id; other columns, lipid A + compounds […] at increasing doses. The data represent means and standard deviations of triplicate wells. This is a representative of three independent experiments. *, p < 0.05; **, p < 0.01; ***, p< 0.001. • Figure 2. TLR-4 selectivity of monosaccharide Id. […] IL-1β was measured in the supernatants by ELISA. […] Lower panels, TNFα production measured by ELISA 24 h after stimulation with CpG (selective for TLR-9) or PAM3Cys-SK4 (selective for TLR-2) in the presence of compound Id. […] The cells were then analyzed by FACS for the presence of annexin V and propidium iodide (PI) double positive cells. […] NF-kB activation was evaluated in the nuclear extract 2 h later and expressed as optical density (OD) at 450 nm. […] Effect of different doses of compound Id on carrageenan induced edema in mice measured 4h after the exposure and expressed as difference between the paw volume of treated paw versus the contralateral paw. […]
# BMΦ and D1 cells = assay: Lipid A-induced IL-1β production (ELISA); format: cell-based, Mouse; conditions: lipid A (0.5 µM) stimulation, effect proportional to concentration
# Method: as §1
# DC and MΦ = assay: Cytotoxicity: PI test and annexin V test by FACS; format: cell-based; conditions: 10 to 100 µM, 48 h incubation, 24 h in Figure 3 legend
# Method: as §1
smiles,measurement,setting,value
"CCCCCCCCCCCCCCO[C@H]1[C@@H](OC)O[C@H](C[N+](C)(C)C2CCCC2)[C@@H](O)[C@@H]1OCCCCCCCCCCCCCC [Compound Id, methyl 6-deoxy-6-N,N',N""-dimethylcyclopentylammonium-2,3-di-O-tetradecyl-α-D-glucopyranoside]",mechanical allodynia,neuropathic mice; Von Frey test,significant relief
same,thermal hyperalgesia,neuropathic mice; plantar test,significant relief
same,ischemia-induced EEG flattening,[1],able to significantly antagonize the ischemia-induced EEG flattening
same,NF-kB activation,human TLR-4A,able to significantly counteract the effect of lipid A
same,IL-1β synthesis,BMΦ and D1 cells,inhibited
same,percent of dead cells,DC and MΦ,does not induce death of MΦ and DC; also recorded: Neither DC nor MΦ showed an appreciable percent of dead cells
